Data taken from patent US9981956B2, “Small molecule inhibitors of fibrosis” (THE CALIFORNIA INSTITUTE FOR BIOMEDICAL RESEARCH, priority 2013, dated 2018).
≈ marks a conversion by molar mass, not a printed value. Where “and” joins values, the source holds several entries; their conditions need not be identical. Equal values may be shown once. Read-outs that look alike come from different tables or passages of the source.

Columns and labels:
[1] = tested on: fibroblast to myofibroblast transdifferentiation (primary human lung fibroblasts and primary rodent HSCs); assay: High content imaging and western based assay of fibroblast to myofibroblast transdifferentiation (α-SMA); assay type: cell-based; conditions: graded, TGF-β induced fibroblast to myofibroblast transdifferentiation
From the text: A high content imaging assay, based on α-SMA staining and cell morphological changes associated with fibroblast to myofibroblast transdifferentiation, was established using primary human lung fibroblasts and primary rodent HSCs. Conditions, involving serum starvation and subsequent TGF-β treatment, were identified that facilitate robust in vitro transdifferentiation in a miniaturized (384 well plate) format that is amenable to high throughput small molecule screening. A selective ALK-5 TGF-β1 receptor inhibitor (SB-431542) was used as a positive control. […] This assay was used to identify a hit compound (itraconazole) and was used to evaluate focused panels of itraconazole analogues generated from medicinal chemistry efforts.
The activity of Itraconazole and its analogues was confirmed by analyzing changes in gene expression of multiple genes associated with fibroblast to myofibroblast transdifferentiation using biochemical methods (i.e., Western blot and RT-PCR). These 4-day assays were used to evaluate sets of 6 compounds at a time in 4-point dose response fashion.
After 24 hour incubation, cells were treated with the indicated doses of itraconazole for 48 hours in the presence of 10 ng/mL of TGF-β1 in hepatic stellate medium. Following fixation and staining with an anti smooth muscle actin antibody, cell morphology was analyzed with a Cellomics cell insight imaging reader (FIG. 1 for representative images). Cells were analyzed for mean cellular area of a-SMA staining (FIG. 5a) or mean fluorescence intensity of SMA staining (FIG. 5b).
After 24 incubation, medium was changed to assay medium containing TGF-β1 (10 ng/mL) and simultaneously treated with itraconazole (10 μM), SB431542 (10 μM) or vehicle control (FIG. 6).

Cyp3A4 = Cyp3A4 (Homo sapiens, UniProt P08684); assay: Cyp reversible inhibition assay (human liver microsomes)
Sequence of Cyp3A4 (P08684 whole entry): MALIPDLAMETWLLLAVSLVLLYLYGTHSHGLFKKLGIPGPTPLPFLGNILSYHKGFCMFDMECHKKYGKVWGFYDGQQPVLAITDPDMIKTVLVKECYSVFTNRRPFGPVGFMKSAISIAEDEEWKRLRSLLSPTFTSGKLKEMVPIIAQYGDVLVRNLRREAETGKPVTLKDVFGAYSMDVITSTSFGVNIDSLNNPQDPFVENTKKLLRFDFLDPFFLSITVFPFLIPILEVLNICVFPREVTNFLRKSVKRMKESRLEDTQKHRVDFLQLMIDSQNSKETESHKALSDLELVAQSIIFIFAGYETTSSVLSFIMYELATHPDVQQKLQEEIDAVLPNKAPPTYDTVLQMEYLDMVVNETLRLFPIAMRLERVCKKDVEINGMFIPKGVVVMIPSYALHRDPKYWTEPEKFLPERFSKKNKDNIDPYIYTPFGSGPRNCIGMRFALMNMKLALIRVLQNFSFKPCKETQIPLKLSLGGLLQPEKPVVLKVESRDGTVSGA
Description: The purpose of this assay was to determine reversible inhibition of Cyp enzyme with a given compound using a substrate probe turnover as the surrogate for inhibition. This was done with human liver microsomes rather an isolated enzyme to account for metabolites of parent drug leading to a potential drug-drug interaction through Cyp inhibition. The substrate turnover (for example conversion of midazolam to hydroxyl midazolam) was monitored by LCMSMS (Q1/Q2=342.2/203.2). Test compounds were tested in a 7-point dose response curve starting from 50 μM to 50 nM (˜3-fold dilution series).
The detailed protocol was as follows: • Prepared test compounds and standard inhibitors working solution (100×) • Pulled microsomes out of the −80° C. freezer to thaw on ice, labeled with the date and put back to freezer immediately after using. • Added 20 μL of the substrate solutions to corresponding wells. • Added 20 μL PB to Blank wells. • Added 2 μL of the test compounds and positive control working solution to corresponding wells. • Added 2 μL MeOH to No Inhibitor wells and Blank wells. • Prepared HLM working solution. • Added 158 μL of the HLM working solution to all wells of incubation plate. • Pre-warmed the plate for about 10 min at 37° C. water bath. • Prepared NADPH cofactor solution. • Added 20 μL NADPH cofactor to all incubation wells. • Mixed and incubated for 10 minutes at 37° C. water bath. • At the time point, terminated the reaction by adding 400 μL cold stop solution (200 ng/mL Tolbutamide in ACN). • Centrifuged the samples at 4000 rpm for 20 minutes to precipitate protein. • Transferred 200 μL supernatant to 200 μL HPLC water and shook for 10 min. • Analyzed samples by LC/MS/MS.

[2] = tested on: Candida albicans (ATCC 10231); assay: Candida albicans anti-fungal MIC potency determination; assay type: cell-based
Description: The wild type Candida albicans (ATCC 10231) was used and Fluconazole, amphotericin B, itraconazole and terbinafine were purchased from Sigma and used as positive controls.
The highest assay concentration for all test compounds and fluconazole was 100 μM. Fluconazole was also tested at the highest concentration of 64 μg/ml, and amphotercin B and terbinafine at 16 and 64 μg/ml. The test compounds were in DMSO stock solution at a concentration of 10 mM. Two stock solutions in DMSO were prepared for fluconazole at 10 mM and 6.4 mg/ml. Amphotericin B and terbinafine stock solutions in DMSO were prepared at 1.6 and 6.4 mg/ml.
Serial dilution of 100× stock solutions: 4 μl of stock solution was added into 196 μl of RPMI1640 (MOPS buffered and free of HEPES and sodium bicarbonate) in the first well of a row of a sterile u-bottom 96-well plate. The rest of the wells was filled with 100 μl RPMI1640. The 2-fold serial dilution was made sequentially by transferring 100 μl solution to the next well and mixing by pipetting, until 11th well. The extra 100 μl in 11th well was discarded. Therefore, the compound wells contained 100 μl of 2× of testing concentrations of drugs in RPMI1640. The 12th well was filled with only 100 μl RPMI1640.
C. albicans 3147 (ATCC 10231) glycerol frozen stock was streaked on Sabouraud dextrose agar (SDA). The plate was incubated at 35° C. ambient atmosphere for 20 h. Single colonies were suspended into sterile saline until turbidity reached 0.1 (1-5×10^6 CFU/ml) using a Siemens turbidity meter. This suspension was diluted 50× in RPMI1640 in a 15 ml conical, and then it was further diluted 20× in RPMI1640 in a 50 ml conical. This gave 1-5×10^3 CFU/ml suspension and was used as inoculum. The cell density in inoculum was plate-counted to be 4.94×10^3 CFU/ml.
The plates were incubated at 35° C. in ambient atmosphere. The photos were taken at 24 h and 48 h. The MIC end points for fluconazole and amphotericin B were read according to the M27-A3 protocol (Reference Method for Broth Dilution Antifungal Susceptibility Testing of Yeasts; Approved Standard-Third Edition, M27-A3 standard published Jan. 1, 2008 by Clinical and Laboratory Standards Institute). The MIC for compounds for test cmpds and terbinafine (not mentioned in M27-A3 protcol) were read as if they were azoles.

[3] = Cyp 3A4 testosterone LCMS IC50, human liver microsomes, substrate testosterone
[4] = ATCC10231, 24 h, read-out: C. Albicans MIC90 at 24 h
[5] = ATCC10231, 48 h, read-out: C. Albicans MIC90 at 48 h
[6] = Cyp 3A4 midazolam LCMS IC50, human liver microsomes, substrate midazolam

`CCC(C)n1ncn(-c2ccc(N3CCN(c4ccc(OC[C@@H]5CO[C@@](Cn6nccn6)(c6ccc(Cl)cc6Cl)O5)cc4)CC3)nc2)c1=O` (stereo partly drawn) [Compound 24] was tested, and the EC50 [1] was 500 to 5000 nM and the IC50 (Cyp3A4; [3]) was > 30000 nM.
In the case of `CCC(C)n1ncn(-c2ccc(N3CCN(c4ccc(OC[C@@H]5CO[C@@](CCCn6cncn6)(c6ccc(Cl)cc6Cl)O5)cc4)CC3)cc2)c1=O` (stereo partly drawn) [Compound 101], the MIC90 [2, 4] is reported as > 100 µM, the MIC90 [2, 5] is reported as > 100 µM and the EC50 [1] is reported as 5000 to 30000 nM.
Work on `CCC(C)n1ncn(-c2ccc(N3CCN(c4ccc(OC[C@@H]5CO[C@@](Cn6ccnc6)(c6ccc(Cl)cc6Cl)O5)cc4)CC3)cc2)c1=O` (stereo partly drawn) [Compound 19] yielded an MIC90 [2, 4] of 0.195 µM (≈ 0.137 µg/mL), an MIC90 [2, 5] of 0.195 µM (≈ 0.137 µg/mL) and an EC50 [1] of 500 to 5000 nM. It also gave an IC50 (Cyp3A4; [6]) of 3.1 nM and an IC50 (Cyp3A4; [3]) of 6.9 nM.
`CCC(C)n1ncn(-c2ccc(N3CCN(c4ccc(OC[C@@H]5CO[C@@](Cc6cncnc6)(c6ccc(Cl)cc6Cl)O5)cc4)CC3)cc2)c1=O` (stereo partly drawn) [Compound 21] was tested, and the MIC90 [2, 4] was > 100 µM, the MIC90 [2, 5] was > 100 µM and the EC50 [1] was 500 to 5000 nM. The IC50 (Cyp3A4; [6]) was 144 nM and the IC50 (Cyp3A4; [3]) was 120 nM.
In the case of `CCC(C)n1ncn(-c2ccc(N3CCN(c4ccc(OC[C@@H]5CO[C@@](Cn6cccn6)(c6ccc(Cl)cc6Cl)O5)cc4)CC3)cc2)c1=O` (stereo partly drawn) [Compound 27], the MIC90 [2, 4] is reported as > 100 µM, the MIC90 [2, 5] is reported as > 100 µM and the EC50 [1] is reported as 5000 to 30000 nM. For the same compound, the IC50 (Cyp3A4; [6]) was > 50000 nM and the IC50 (Cyp3A4; [3]) was > 50000 nM.
`CCC(C)n1ncn(-c2ccc(N3CCN(c4ccc(OC[C@@H]5CO[C@@](Cc6cccnc6)(c6ccc(Cl)cc6Cl)O5)cc4)CC3)cc2)c1=O` (stereo partly drawn) [Compound 26] was tested, and the MIC90 [2, 4] was > 100 µM, the MIC90 [2, 5] was > 100 µM and the EC50 [1] was 500 to 5000 nM. It also gave an IC50 (Cyp3A4; [6]) of 180 nM and an IC50 (Cyp3A4; [3]) of 283 nM.
In the case of `CCC(C)n1ncn(-c2ccc(N3CCN(c4ccc(OC[C@@H]5CO[C@@](Cn6nccn6)(c6ccc(Cl)c(Cl)c6)O5)cc4)CC3)cc2)c1=O` (stereo partly drawn) [Compound 36], the MIC90 [2, 4] is reported as > 100 µM, the MIC90 [2, 5] is reported as > 100 µM and the EC50 [1] is reported as 5000 to 30000 nM. For the same compound, the IC50 (Cyp3A4; [6]) was > 50000 nM and the IC50 (Cyp3A4; [3]) was > 50000 nM.
With `CCC(C)n1ncn(-c2ccc(N3CCN(c4ccc(OC[C@@H]5CO[C@@](Cc6ccnnc6)(c6ccccc6)O5)cc4)CC3)cc2)c1=O` (stereo partly drawn) [Compound 84] the MIC90 [2, 4] was > 100 µM, the MIC90 [2, 5] was > 100 µM and the EC50 [1] was 500 to 5000 nM. For the same compound, the IC50 (Cyp3A4; [6]) was 2550 nM and 2350 nM and the IC50 (Cyp3A4; [3]) was 1770 nM.
For `CCC(C)n1ncn(-c2ccc(N3CCN(c4ccc(OC[C@@H]5CO[C@@](Cn6nccn6)(c6ccc(Cl)cc6)O5)cc4)CC3)cc2)c1=O` (stereo partly drawn) [Compound 30], the MIC90 [2, 4] was > 100 µM, the MIC90 [2, 5] was > 100 µM and the EC50 [1] was 500 to 5000 nM. For the same compound, the IC50 (Cyp3A4; [6]) was > 50000 nM and the IC50 (Cyp3A4; [3]) was > 50000 nM.
`CCC(C)n1ncn(-c2ccc(N3CCN(c4ccc(OC[C@@H]5CO[C@@](Cn6nccn6)(c6ccccc6C#N)O5)cc4)CC3)cc2)c1=O` (stereo partly drawn) [Compound 74] was tested, and the EC50 [1] was 500 to 5000 nM, the IC50 (Cyp3A4; [6]) was > 50000 nM and the IC50 (Cyp3A4; [3]) was > 50000 nM.
In the case of `CCC(C)n1ncn(-c2ccc(N3CCN(c4ccc(OC[C@@H]5CO[C@@](Cn6nccn6)(c6ccc(Cl)cc6Cl)O5)cc4F)CC3)cc2)c1=O` (stereo partly drawn) [Compound 54], the MIC90 [2, 4] is reported as > 100 µM, the MIC90 [2, 5] is reported as > 100 µM and the EC50 [1] is reported as < 500 nM. The IC50 (Cyp3A4; [6]) was > 50000 nM and the IC50 (Cyp3A4; [3]) was > 50000 nM.
